Among the test systems are MALME-3M melanoma; NCI-H522 lung; SK-MEL-28 melanoma; OVCAR-3 ovarian; U251 CNS; MCF7 breast; HS 578T breast; CCRF-CEM leukemia; DU-145 prostate; NCI-H226 lung.
Holding throughout (test): growth of human tumour cells (NCI), 48 h

From PubChem BioAssay (NCI) come the findings set out here.

SMILES strings stand for the structures. “And” between values parts separate entries of the source, which are not always exact repeats. Identical values can stand only once.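 Grown in 96-well plates, cells were treated for 48 hours with each compound at five concentrations. Insufficient inhibition: endpoint recorded as highest concentration tested. Abbreviation: GI50, concentration required for 50% inhibition of growth. TGI denotes the concentration required for complete inhibition of growth.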

With `Clc1coc2nc3ccccc3c(Nc3ccc4c(c3)OCO4)c12`, the GI50 was 0.795 µM in the experiment on MALME-3M melanoma; 2.17 µM with NCI-H522 lung; 3.49 µM in the experiment with SK-MEL-28 melanoma; 0.596 µM in the experiment with OVCAR-3 ovarian; 1.12 µM in the experiment with U251 CNS; 1.81 µM in the experiment with MCF7 breast. In addition, the GI50 was 1.89 µM in the experiment with HS 578T breast, 1.54 µM in the experiment on CCRF-CEM leukemia, 2.58 µM in the experiment with DU-145 prostate and 2.35 µM in the experiment with NCI-H226 lung. For the same compound, the TGI is 8.67 µM with MALME-3M melanoma; greater than 23.3 µM in the experiment with NCI-H522 lung; greater than 71.4 µM in the experiment with SK-MEL-28 melanoma; 2.46 µM with OVCAR-3 ovarian; 11.5 µM in the experiment with U251 CNS; greater than 100 µM in the experiment with MCF7 breast. The TGI in the experiment with HS 578T breast was 5.37 µM; in the experiment with CCRF-CEM leukemia it was 6.96 µM; in the experiment on DU-145 prostate, 17.2 µM; in the experiment with NCI-H226 lung, greater than 26.2 µM.
As to `CC[C@]12C=CCN3CC[C@@]4(c5ccc(OC)cc5N(C)[C@H]4[C@@](O)(C(=O)OC)[C@@H]1OC(=O)CCC[P+](c1ccccc1)(c1ccccc1)c1ccccc1)[C@@H]32`, the GI50 in the experiment on MALME-3M melanoma was 0.338 µM and 0.493 µM; with NCI-H522 lung, 0.247 µM and 0.342 µM; in the experiment with SK-MEL-28 melanoma it was 0.274 µM and 0.442 µM; in the experiment on OVCAR-3 ovarian, 0.291 µM and 0.447 µM; in the experiment with U251 CNS it was 0.487 µM and 0.336 µM; in the experiment with MCF7 breast it was 0.254 µM and 0.354 µM. The GI50 with HS 578T breast is 1.21 µM and 1.15 µM; in the experiment with CCRF-CEM leukemia, 0.64 µM and 0.609 µM; in the experiment on DU-145 prostate, 1.09 µM and 0.768 µM; in the experiment with NCI-H226 lung, 1.91 µM and 1.93 µM. Further, the TGI was 1.37 µM and 1.78 µM in the experiment on MALME-3M melanoma; 5.37 µM and 1.41 µM with NCI-H522 lung; 1.06 µM and 1.67 µM in the experiment on SK-MEL-28 melanoma; 2.97 µM and 1.99 µM in the experiment with OVCAR-3 ovarian; 6.59 µM and 2.64 µM in the experiment on U251 CNS; 5.21 µM and 1.79 µM with MCF7 breast. The TGI in the experiment on HS 578T breast is 6.71 µM and 5.07 µM; in the experiment on CCRF-CEM leukemia it was 5.44 µM and 2.68 µM; in the experiment on DU-145 prostate, 6.47 µM and 11.8 µM; in the experiment with NCI-H226 lung, 8.62 µM and 12.4 µM.
As for `COc1ccc(C(=O)c2cc(OC)c(C)c(OC)c2)cc1OC(=O)CCl`, the GI50 with MALME-3M melanoma was 0.572 µM; in the experiment with NCI-H522 lung, 0.21 µM; with SK-MEL-28 melanoma it was 0.732 µM; in the experiment on OVCAR-3 ovarian, 0.336 µM; in the experiment on U251 CNS it was 0.415 µM; with MCF7 breast, 0.361 µM. Besides, the GI50 in the experiment with HS 578T breast was 0.314 µM; in the experiment on CCRF-CEM leukemia, 0.331 µM; in the experiment on DU-145 prostate, 0.322 µM; in the experiment with NCI-H226 lung, 8 µM. Besides, the TGI in the experiment on MALME-3M melanoma was 48.1 µM; with NCI-H522 lung it was 14.1 µM; in the experiment on SK-MEL-28 melanoma it was 40.4 µM; with OVCAR-3 ovarian, 10.8 µM; with U251 CNS, greater than 45.3 µM; in the experiment on MCF7 breast, greater than 100 µM. Moreover, the TGI is greater than 100 µM in the experiment on HS 578T breast, greater than 100 µM in the experiment on CCRF-CEM leukemia, 18.2 µM with DU-145 prostate and greater than 30.6 µM in the experiment with NCI-H226 lung.
Take `Oc1ccc(Cl)cc1Cc1cc(Cl)cc(Cl)c1O`: the GI50 in the experiment on MALME-3M melanoma is 3.68 µM; in the experiment on NCI-H522 lung, 3.43 µM; in the experiment with SK-MEL-28 melanoma, 4.83 µM; with OVCAR-3 ovarian, 2.83 µM; in the experiment with U251 CNS, 5.12 µM; with MCF7 breast, 3.51 µM. Besides, the GI50 is 2.61 µM in the experiment with HS 578T breast, 6.53 µM in the experiment with CCRF-CEM leukemia, 4.94 µM in the experiment on DU-145 prostate and 12.7 µM in the experiment with NCI-H226 lung. Also, the TGI with MALME-3M melanoma turned out to be 18.7 µM; in the experiment on NCI-H522 lung, 13.2 µM; in the experiment on SK-MEL-28 melanoma it was 31.7 µM; in the experiment on OVCAR-3 ovarian, 16.5 µM; with U251 CNS, 50.9 µM; with MCF7 breast, 20.3 µM. Moreover, the TGI in the experiment with HS 578T breast amounted to 8.97 µM; in the experiment with CCRF-CEM leukemia, 88 µM; in the experiment on DU-145 prostate it was 53.7 µM; in the experiment on NCI-H226 lung, 37.2 µM.
Turning to `COCCOc1cc(F)c2c(Nc3ccc(NC(=O)Cn4cc(C(C)C)nn4)cc3)ncnc2c1`, the GI50 in the experiment with MALME-3M melanoma is 79.6 µM; in the experiment with NCI-H522 lung it was 35.5 µM; in the experiment with SK-MEL-28 melanoma, greater than 100 µM; in the experiment on OVCAR-3 ovarian, greater than 100 µM; in the experiment with U251 CNS it was 37.4 µM; with MCF7 breast, greater than 100 µM. For the same compound, the GI50 in the experiment on HS 578T breast is 16.5 µM; in the experiment with CCRF-CEM leukemia it was greater than 100 µM; in the experiment with DU-145 prostate, greater than 100 µM; in the experiment on NCI-H226 lung, 60.8 µM. Also, the TGI in the experiment with MALME-3M melanoma, with NCI-H522 lung, in the experiment on SK-MEL-28 melanoma, in the experiment on OVCAR-3 ovarian, in the experiment on U251 CNS and in the experiment with MCF7 breast was greater than 100 µM in each case. The TGI in the experiment with HS 578T breast, with CCRF-CEM leukemia, with DU-145 prostate and in the experiment on NCI-H226 lung was greater than 100 µM in each case.
